In ChEMBL document CHEMBL1759873, “Novel thiolactone-isatin hybrids as potential antimalarial and antitubercular agents” (Bioorg Med Chem Lett, 2011):
pIC50: −log10 of the molar value. Values after ≈ are worked out from the molar mass of the structure shown.

What was measured:
[1] = tested on: Mycobacterium tuberculosis; assay: Antitubercular activity against Mycobacterium tuberculosis H37Rv by microplate alamar blue assay; format: functional
[2] = Inhibition of Plasmodium falciparum W2 recombinant falcipain-2
Plasmodium falciparum = assay: Antiplasmodial activity against Plasmodium falciparum W2; format: functional, organism-based
[3] = tested on: Mycobacterium tuberculosis; assay: Antitubercular activity against Mycobacterium tuberculosis H37Rv at 10 ug/ml by BACTEC radiometric susceptibility assay; format: functional
[4] = tested on: Mycobacterium tuberculosis; assay: Antitubercular activity against Mycobacterium tuberculosis H37Rv at 1 ug/ml by BACTEC radiometric susceptibility assay; format: functional
[5] = tested on: Mycobacterium tuberculosis; assay: Antitubercular activity against Mycobacterium tuberculosis H37Rv by LORA assay; format: functional

SMILES | MIC [1] | pIC50 [2] | pIC50 (Plasmodium falciparum) | inhibition at 10 µg/mL [3] | inhibition at 1 µg/mL [4] | MIC [5]
CC1=C2OCCCCCN3C(=O)C(O)(c4cc(Cl)ccc43)C2(C)SC1=O (stereo not given) | > 128 µM | < 4.00 | < 4.70 | -15.2% | 0% | 
CC1=C2OCCCCCCN3C(=O)C(O)(c4cc(I)ccc43)C2(C)SC1=O (stereo not given) | > 128 µM | 4.32 | 5.16 | -40% | -34% | 
CC1=C2OCCCCCCN3C(=O)C(O)(c4cc(Br)ccc43)C2(C)SC1=O (stereo not given) | > 128 µM | 4.08 | 5.16 | -0.5% | 8.1% | 
O=C1C(=O)N(CCCCBr)c2ccccc21 | 96.5 µM (≈ 27.2 µg/mL) | < 4.00 | < 4.70 |  |  | 28.8 µM (≈ 8.13 µg/mL)
CC1=C2OCCCCN3C(=O)C(O)(c4cc(I)ccc43)C2(C)SC1=O (stereo not given) | > 128 µM | < 4.00 | < 4.70 | 19.6% | 4.9% | 
NNC(=O)c1ccncc1 [ISONIAZID] | 0.37 µM (≈ 0.0507 µg/mL) |  |  |  |  | > 128 µM
CC1=C2OCCCCN3C(=O)C(O)(c4cc(Br)ccc43)C2(C)SC1=O (stereo not given) | > 128 µM | < 4.00 | < 4.70 | 5.1% | -16.2% | 
CC1=C(OCCN2C(=O)C(=O)c3cc(Br)ccc32)C(C)SC1=O (stereo not given) |  | 4.50 | 4.76 |  |  | 
CC1=C(O)SC(C)C1=O (stereo not given) [THIOLACTONE] | > 128 µM | < 4.00 | < 4.70 | -32.8% | -24.5% | 
O=C1C(=O)N(CCCCBr)c2ccc(F)cc21 | 123 µM (≈ 36.9 µg/mL) | < 4.00 | < 4.70 |  |  | 53.3 µM (≈ 16 µg/mL)
O=C1C(=O)N(CCCCCCBr)c2ccccc21 | 97.6 µM (≈ 30.3 µg/mL) | < 4.00 | < 4.70 |  |  | 108 µM (≈ 33.5 µg/mL)
CC1=C(OCCCCCN2C(=O)C(=O)c3ccccc32)C(C)SC1=O (stereo not given) | > 128 µM | 4.24 | 4.82 | 34% | 34.9% | 
CC1=C(OCCN2C(=O)C(=O)c3cc(Cl)ccc32)C(C)SC1=O (stereo not given) | 63.7 µM (≈ 22.4 µg/mL) | 4.32 | < 4.70 | 9.9% | -2.8% | 117 µM (≈ 41.2 µg/mL)
CC1=C(OCCN2C(=O)C(=O)c3ccccc32)C(C)SC1=O (stereo not given) | > 128 µM | 4.40 | < 4.70 | 34.7% | 31.7% | 
Cc1ccc2c(c1)C(=O)C(=O)N2CCCCBr | 62.7 µM (≈ 18.6 µg/mL) | < 4.00 | < 4.70 |  |  | 53.2 µM (≈ 15.8 µg/mL)
CC1=C2OCCCCN3C(=O)C(O)(c4cc(C)ccc43)C2(C)SC1=O (stereo not given) | > 128 µM | < 4.00 | < 4.70 | -0.4% | -0.6% | 
CC1=C(OCCN2C(=O)C(=O)c3cc(F)ccc32)C(C)SC1=O (stereo not given) | > 128 µM | 4.05 | < 4.70 | 22% | -29% | 
CC1=C(OCCCN2C(=O)C(=O)c3ccccc32)C(C)SC1=O (stereo not given) | > 128 µM | < 4.00 | < 4.70 | 14.9% | -18.5% | 
CC1=C2OCCCCCN3C(=O)C(O)(c4ccccc43)C2(C)SC1=O (stereo not given) | > 128 µM | < 4.00 | < 4.70 | 32.6% | 21.9% | 
CC1=C(OCCN2C(=O)C(=O)c3cc(I)ccc32)C(C)SC1=O (stereo not given) | > 128 µM | 4.75 | < 4.70 | 42% | -3.2% | 
CC1=C2OCCCCN3C(=O)C(O)(c4cc([N+](=O)[O-])ccc43)C2(C)SC1=O (stereo not given) | > 128 µM | 4.35 | < 4.70 | -5.1% | -3% | 
CC1=C2OCCCCCCN3C(=O)C(O)(c4cc(F)ccc43)C2(C)SC1=O (stereo not given) | > 128 µM | < 4.00 | 4.85 | -28% | -35% | 
CC1=C2OCCCCCCN3C(=O)C(O)(c4cc(Cl)ccc43)C2(C)SC1=O (stereo not given) | > 128 µM | < 4.00 | 5.13 | -20% | -16% | 
O=[N+]([O-])c1cn2c(n1)OC[C@@H](OCc1ccc(OC(F)(F)F)cc1)C2 [PRETOMANID] | 0.16 µM (≈ 0.0575 µg/mL) |  |  |  |  | 3.3 µM (≈ 1.19 µg/mL)

SMILES | MIC [1] | pIC50 [2] | pIC50 (Plasmodium falciparum) | inhibition at 10 µg/mL [3] | inhibition at 1 µg/mL [4] | MIC [5]
O=C1C(=O)N(CCCCBr)c2ccc(Cl)cc21 | 30.5 µM (≈ 9.66 µg/mL) | < 4.00 | < 4.70 |  |  | 30.5 µM (≈ 9.66 µg/mL)
O=C1C(=O)N(CCCCBr)c2ccc([N+](=O)[O-])cc21 | > 128 µM | < 4.00 | < 4.70 |  |  | 
CC1=C2OCCCCCCN3C(=O)C(O)(c4ccccc43)C2(C)SC1=O (stereo not given) | > 128 µM | < 4.00 | 4.94 | 18.5% | 9.4% | 
CC1=C2OCCCCN3C(=O)C(O)(c4cc(F)ccc43)C2(C)SC1=O (stereo not given) | > 128 µM | < 4.00 | < 4.70 | 1.3% | 4.9% | 
CC1=C2OCCCCN3C(=O)C(O)(c4cc(Cl)ccc43)C2(C)SC1=O (stereo not given) | > 128 µM | < 4.00 | < 4.70 | 15.3% | 13.4% | 
CC(C)C[C@H](NC(=O)[C@H]1O[C@@H]1C(=O)O)C(=O)NCCCCN=C(N)N [E-64] |  | 7.32 |  |  |  | 
C=C/C(C)=C/[C@@]1(C)SC(=O)C(C)=C1O [THIOLACTOMYCIN] | > 128 µM | < 4.00 | < 4.70 | 58.6% | -3.8% | 
COc1c(N2C[C@@H]3CCCN[C@@H]3C2)c(F)cc2c(=O)c(C(=O)O)cn(C3CC3)c12 [MOXIFLOXACIN] | 0.29 µM (≈ 0.116 µg/mL) |  |  |  |  | 31.1 µM (≈ 12.5 µg/mL)
O=C1C(=O)N(CCCCCCBr)c2ccc(F)cc21 | 62.3 µM (≈ 20.4 µg/mL) |  |  |  |  | 31.5 µM (≈ 10.3 µg/mL)
CC1=C2OCCCCCN3C(=O)C(O)(c4cc(Br)ccc43)C2(C)SC1=O (stereo not given) | > 128 µM | 5.00 | < 4.70 | -21.1% | -26% | 
CC1=C2OCCCCCN3C(=O)C(O)(c4cc(I)ccc43)C2(C)SC1=O (stereo not given) | > 128 µM | < 4.00 | < 4.70 | -40.7% | -39.7% | 
O=C1C(=O)N(CCCCBr)c2ccc(Br)cc21 | 30.5 µM (≈ 11 µg/mL) | < 4.00 | < 4.70 |  |  | 37.7 µM (≈ 13.6 µg/mL)
CC1=C(OCCCCN2C(=O)C(=O)c3ccccc32)C(C)SC1=O (stereo not given) | > 128 µM | < 4.00 | < 4.70 | 42.6% | 33.4% | 
CC1=C(OCCN2C(=O)C(=O)c3cc(C)ccc32)C(C)SC1=O (stereo not given) | > 128 µM | < 4.00 | < 4.70 | 4% | -12% | 
O=C1C(=O)N(CCBr)c2ccccc21 | > 128 µM | < 4.00 | < 4.70 |  |  | 
CC1=C(OCCCCCCN2C(=O)C(=O)c3ccccc32)C(C)SC1=O (stereo not given) | > 128 µM | 4.49 | 4.91 | 36.4% | 27.7% | 
CN[C@@H]1[C@H](O[C@H]2[C@H](O[C@H]3[C@H](O)[C@@H](O)[C@H](N=C(N)N)[C@@H](O)[C@@H]3N=C(N)N)O[C@@H](C)[C@]2(O)C=O)O[C@@H](CO)[C@H](O)[C@H]1O [STREPTOMYCIN] | 0.43 µM (≈ 0.25 µg/mL) |  |  |  |  | 
O=C1C(=O)N(CCCBr)c2ccccc21 | > 128 µM | < 4.00 | < 4.70 |  |  | 
O=C1C(=O)N(CCCCCBr)c2ccccc21 | 23.2 µM (≈ 6.87 µg/mL) | < 4.00 | < 4.70 | 34.8% | -22.1% | 44.4 µM (≈ 13.1 µg/mL)
CC1=C2OCCCCN3C(=O)C(O)(c4ccccc43)C2(C)SC1=O (stereo not given) | > 128 µM | < 4.00 | < 4.70 | 18.1% | 17% | 
CO[C@H]1/C=C/O[C@@]2(C)Oc3c(C)c(O)c4c(O)c(c(/C=N/N5CCN(C)CC5)c(O)c4c3C2=O)NC(=O)/C(C)=C\C=C\[C@H](C)[C@H](O)[C@@H](C)[C@@H](O)[C@@H](C)[C@H](OC(C)=O)[C@@H]1C [RIFAMPIN] | 0.05 µM (≈ 0.0411 µg/mL) |  |  |  |  | 2.4 µM (≈ 1.98 µg/mL)
O=C1C(=O)N(CCCCCCBr)c2ccc(Cl)cc21 | 29.7 µM (≈ 10.2 µg/mL) |  |  |  |  | 31 µM (≈ 10.7 µg/mL)
O=C1C(=O)N(CCCCBr)c2ccc(I)cc21 | 15.5 µM (≈ 6.32 µg/mL) | < 4.00 | < 4.70 |  |  | 57.1 µM (≈ 23.3 µg/mL)
